Data taken from patent US10869931B2, “Polyethylene glycol-modified angiogenesis inhibitor HM-1 and application thereof” (NANJING ANJI BIOLOGICAL TECHNOLOGY CO.,LTD, priority 2016, dated 2020).
Marks after values point to notes of the source that are not given here. Where no end group is shown, it is not given here.

Tests used:
[1] = tested on: Uterine cancer tumor cells; experiment: MTT proliferation inhibition, uterine cancer cells; format: cell-based, human; design: concentration or dose not given beside the values; details: 48 h
Description: (§1) The activity of mPEG-HM-1 to inhibit the growth of various tumor cells was examined by MTT assay. The tumor cells were cultured to a concentration of 90% or more in a 37° C., 5% CO2 incubator and collected by trypsinization. The cells were resuspended in the culture medium and counted under a microscope to adjust the cell concentration to 2×10^4 cells/mL, the cell suspension was inoculated into a 96-well plate at 100 μL/well and incubated overnight at 37° C. in a 5% CO2 incubator. mPEG-HM-1 was diluted with the culture solution to each predetermined concentration. Docetaxel is diluted to the final concentration with the culture medium. After the cells were fully attached, each dilution was added to a 96-well plate (100 μL/well). The mPEG-HM-1 dilution was added as a drug-administered group, and docetaxel was added as a positive control group, and a culture solution without any drug was used as a negative control group. Incubate for 48 h at 37° C. in a 5% CO2 incubator. 5 mg/mL of MTT was added to a 96-well plate at 20 μL per well, and incubation was continued for 4 hours. The medium was aspirated, dissolved in 150 μL of DMSO per well, and gently mixed by shaking for 10 min. The absorbance was measured at a measurement wavelength of 570 nm and a reference wavelength of 630 nm using a microplate reader, and the rate of growth inhibition (proliferation inhibition, PI) was calculated. The formula is as follows: PI (%)=1−administration group/negative group
(§2) The test was repeated 3 times independently, and the results obtained by the test were expressed as mean±SD, and the test results are shown in Table 15 to Table 18.

[2] = tested on: Bladder Cancer tumor cells; experiment: MTT proliferation inhibition, bladder cancer cells; format: cell-based, human; design: concentration or dose not given beside the values; details: 48 h
Description: as §1, §2

Hemangioma tumor cells = experiment: MTT proliferation inhibition, hemangioma cells; format: cell-based, human; design: concentration or dose not given beside the values; details: 48 h
Description: as §1, §2

mouse spleen lymphocytes = experiment: ConA-stimulated mouse spleen lymphocyte proliferation (MTT); format: cell-based; details: ConA 5 μg/mL, 48 h
Description: Tris-NH4Cl was used to break the red blood cells, and the cells were allowed to stand in an ice water bath for 4 min, centrifuged (1000 rpm×5 min), the supernatant was discarded, and the cells were washed twice with sterile PBS. Finally, cells were suspended in RPMI 1640 medium (5 mL) supplemented with 10% calf serum, counted, adjusted to a cell concentration of 5×10^6/mL, and cultured in a 96-well culture plate The test group consisted of blank control group, concanavalin A (ConA) group, dexamethasone (Dex) group (0.02 mg/mL) and mPEG-HM-1 group. […] The cells were cultured in a 37° C. cell culture chamber for 48 h. After the completion of the culture, 20 μL of MTT was added to each well, and the culture was continued for 4 h. Finally, all the solutions in each well were discarded, 100 μL of DMSO was added to each well, and the mixture was shaken and detected by a microplate reader OD value at 570 nm, 5 parallels per hole.

[3] = tested on: collagen induced arthritis (CIA) in DBA/1 mice; experiment: Collagen-induced mouse arthritis (CIA) model; format: in vivo; details: for Joint swelling / Left and right paw swelling / Clinical score: CIA DBA/1 mice; for Clinical score: maximum score 16
[4] = tested on: adjuvant arthritis (AA) SD rats; experiment: Adjuvant arthritis (AA) rat model; format: in vivo; details: for Joint swelling / Left and right paw swelling / Clinical score: AA SD rats; for Clinical score: maximum score 16
[5] = tested on: corneal neovascularization in BALB/c mice; experiment: Alkali-burn corneal neovascularization in BALB/c mice (CD31 microvessel density); format: in vivo, mouse; details: for Inhibition rate: corneal microvessel density vs control; for Inhibition rate / MVD: day 14 after alkali burn, intravitreal once a day for 1 week; for MVD: microvessel density (CD31) of cornea
From the text: (1) Preparation of corneal neovascularization model induced by alkali burn in BALB/c mice: mice were randomly grouped and labeled as mPEG-HM-1 experimental group and control group, 5 […] in each group, respectively, was given mPEG-HM-1 and saline by Intravitreal injection after alkali burn, once a day for 1 week. The inflammatory reaction and neovascularization of the cornea were observed under slit lamp microscope at 1 d, 7 d, and 14 d after alkali burn. On the 14th day after alkali burn, the corneal neovascularization was recorded under the slit lamp microscope in the anterior segment of the eye. All the mice were euthanized by cervical dislocation and the eyeballs were removed, washed with saline to rid of blood, and was fixed in 4% paraformaldehyde for 1.5 h, dehydrated in PBS containing 30% sucrose overnight, embedded in OCT frozen section embedding agent, stored in −80° C. refrigerator, frozen section 8 μm, and underwent immunocytochemical detection of CD31 expression. (2) Quantitative measurement of corneal tissue microvessel density: Microvessel density (MVD) is an indicator for evaluating angiogenesis. Vascular endothelial cells were labeled with anti-CD31 antibody by immunohistochemistry, and the number of microvessels per unit area was counted to measure the degree of neovascularization. Standards for counting microvessels: Microscopically, the endothelial cells or cell clusters that are clearly demarcated from adjacent tissues in the corneal tissue and stained brown or brown are counted in the neovascularization. The number of new blood vessels in the whole section was counted under a 10×20 microscope. After the corneal tissue was photographed, the entire corneal tissue area was calculated by image processing software Image J, and the neovascular density of the whole section was determined. The test was repeated 3 times independently. The results obtained by the test were expressed as mean±SD, and a statistical T test was performed. *P<0.05 was a significant difference, and **P<0.01 was a very significant difference.

[6] = tested on: retinal neovascular clusters in OIR C57/B16 mice; experiment: Retinal blood vessels in OIR mice; format: in vivo, mouse; details: for Neovascular clusters area: retina evaluated on day 17; for Inhibition rate: neovascular clusters area vs control, day 17
From the text: Establishment of the OIR model: Exposure of young mouse and their mothers to 75% hyperoxic environment from day 7 to day 12 after birth of C57/B16 mice caused rapid disappearance of capillaries in the central retina. Upon returning to the indoor air on the 12th day, the retinal blood vessels, upon exposing to hyperoxia, rapidly disappeared, causing extensive abnormal neovascularization, and the central portion of the retina remained largely avascular for a long time. After the blood vessels disappeared completely, on the 13th day, physiological saline (negative control group), mPEG-SC-HM-1, mPEG2-NHS-HM-1, mPEG-ALD10k-HM-1, and mPEG-bALD-HM-1, were administered by intravitreal injection and retinal vessels were evaluated on day 17 (to label unclosed vessels, […] of Texas Red-labeled tomato lectin was injected into the left ventricle and circulated for 5 min).

[7] = 10 mg/kg subcutaneous from day 30 of modeling
[8] = 10 mg/kg subcutaneous once every three days
[9] = 20 mg/kg subcutaneous from day 30 of modeling
[10] = 20 mg/kg subcutaneous once every three days
[11] = 40 mg/kg subcutaneous from day 30 of modeling
[12] = 40 mg/kg subcutaneous once every three days
[13] = 80 mg/kg subcutaneous from day 30 of modeling
[14] = 80 mg/kg subcutaneous once every three days

Row | Substance | rate of growth inhibition [1] | rate of growth inhibition [2] | rate of growth inhibition (Hemangioma tumor cells) | A570 nm/A630 nm (mouse spleen lymphocytes; 10 μg/mL) | Inhibition Rate of spleen lymphocyte proliferation (mouse spleen lymphocytes; 10 μg/mL) | A570 nm/A630 nm (mouse spleen lymphocytes; 20 μg/mL) | Inhibition Rate of spleen lymphocyte proliferation (mouse spleen lymphocytes; 20 μg/mL) | Inhibition rate [5] | MVD [5] | A570 nm/A630 nm (mouse spleen lymphocytes; 40 μg/mL) | Inhibition Rate of spleen lymphocyte proliferation (mouse spleen lymphocytes; 40 μg/mL) | A570 nm/A630 nm (mouse spleen lymphocytes; 80 μg/mL) | Inhibition Rate of spleen lymphocyte proliferation (mouse spleen lymphocytes; 80 μg/mL) | also measured
1 | mPEG2-NHS5k-Arg-Gly-Ala-Asp-Arg-Ala-Gly-Gly-Gly-Gly-Arg-Gly-Asp ({mPEG2‑NHS 5 kDa}-RGADRAGGGGRGD) [mPEG2-NHS5k-HM-1] | 55.20 ± 15.63% | 38.64 ± 12.72% | 42.78 ± 12.50% | 0.5624 ± 0.1098 | 18.78% | 0.4873 ± 0.1126 | 29.62% | 40.13% | 39.95 ± 3.985* |  |  |  |  | A570 nm/A630 nm (mouse spleen lymphocytes; 5 μg/mL): 0.6304 ± 0.0983; Inhibition Rate of spleen lymphocyte proliferation (mouse spleen lymphocytes; 5 μg/mL): 8.96%; Joint swelling [3, 7]: 0.78 ± 0.12 mm; Left and right paw swelling [3, 7]: 0.76 ± 0.11 mm; Clinical score [3, 7]: 9.01 ± 1.28; Joint swelling [4, 8]: 0.73 ± 0.16 mm; Left and right paw swelling [4, 8]: 3.91 ± 0.73 mm; Clinical score [4, 8]: 5.92 ± 1.04; Neovascular clusters area ([6]; 25 μg intravitreal injection on day 13): 0.119 ± 0.007 mm^2; Inhibition rate ([6]; 25 μg intravitreal): 46.35%*
2 | mPEG2-NHS10k-Arg-Gly-Ala-Asp-Arg-Ala-Gly-Gly-Gly-Gly-Arg-Gly-Asp ({mPEG2‑NHS 10 kDa}-RGADRAGGGGRGD) [mPEG2-NHS10k-HM-1] | 60.49 ± 18.05% | 43.78 ± 10.16% | 48.81 ± 12.46% | 0.6239 ± 0.1086 | 9.90% | 0.5533 ± 0.1067 | 20.09% | 50.07% | 33.32 ± 3.871** | 0.4747 ± 0.1174 | 31.44% |  |  | Joint swelling [3, 9]: 0.75 ± 0.15 mm; Left and right paw swelling [3, 9]: 0.74 ± 0.14 mm; Clinical score [3, 9]: 8.83 ± 1.32; Joint swelling [4, 10]: 0.69 ± 0.19 mm; Left and right paw swelling [4, 10]: 3.80 ± 0.73 mm; Clinical score [4, 10]: 5.53 ± 1.09; in vivo immune protection effect on adjuvant arthritis model (in words) ([4]; AA rats, subcutaneous, once every three days, vs model group): has the most significant effect; inhibition rate of corneal neovascularization ([5]; BALB/c mice, alkali burn, intravitreal injection once a day for 1 week): 50.07%; Neovascular clusters area ([6]; 50 μg intravitreal injection on day 13): 0.100 ± 0.006 mm^2; Inhibition rate ([6]; 50 μg intravitreal): 54.63%**; inhibition rate of retinal neovascular clusters ([6]; OIR mice, 50 μg intravitreal injection, evaluated day 17): 54.63%
3 | mPEG2-NHS20k-Arg-Gly-Ala-Asp-Arg-Ala-Gly-Gly-Gly-Gly-Arg-Gly-Asp ({mPEG2‑NHS 20 kDa}-RGADRAGGGGRGD) [mPEG2-NHS20k-HM-1] | 65.99 ± 22.07% | 49.79 ± 12.73% | 55.38 ± 16.23% |  |  | 0.6082 ± 0.0990 | 12.16% | 42.37% | 38.46 ± 4.528** | 0.4879 ± 0.1156 | 29.53% | 0.4375 ± 0.1095 | 36.82% | Joint swelling [3, 11]: 0.72 ± 0.16 mm; Left and right paw swelling [3, 11]: 0.75 ± 0.12 mm; Clinical score [3, 11]: 8.67 ± 1.35; limbs score (in words) ([3]; CIA mice, subcutaneous, once every three days, vs model control group): significantly lower than that of the model control group; Joint swelling [4, 12]: 0.80 ± 0.21 mm; Left and right paw swelling [4, 12]: 3.77 ± 0.66 mm; Clinical score [4, 12]: 5.82 ± 1.03; Neovascular clusters area ([6]; 100 μg intravitreal injection on day 13): 0.112 ± 0.011 mm^2; Inhibition rate ([6]; 100 μg intravitreal): 49.27%**
4 | mPEG2-NHS40k-Arg-Gly-Ala-Asp-Arg-Ala-Gly-Gly-Gly-Gly-Arg-Gly-Asp ({mPEG2‑NHS 40 kDa}-RGADRAGGGGRGD) [mPEG2-NHS40k-HM-1] | 62.25 ± 20.39% | 45.60 ± 10.11% | 50.64 ± 15.89% |  |  |  |  | 43.19% | 37.91 ± 4.273** | 0.6191 ± 0.0984 | 10.59% | 0.4985 ± 0.1248 | 28.01% | A570 nm/A630 nm (mouse spleen lymphocytes; 160 μg/mL): 0.4827 ± 0.1136; Inhibition Rate of spleen lymphocyte proliferation (mouse spleen lymphocytes; 160 μg/mL): 30.28%; Joint swelling [3, 13]: 0.76 ± 0.14 mm; Left and right paw swelling [3, 13]: 0.79 ± 0.15 mm; Clinical score [3, 13]: 8.98 ± 1.30; Joint swelling [4, 14]: 0.73 ± 0.14 mm; Left and right paw swelling [4, 14]: 3.81 ± 0.63 mm; Clinical score [4, 14]: 5.89 ± 1.07; Neovascular clusters area ([6]; 200 μg intravitreal injection on day 13): 0.120 ± 0.008 mm^2; Inhibition rate ([6]; 200 μg intravitreal): 45.92%*
